Laboratory results reported in ChEMBL document CHEMBL1201862, “PubChem BioAssay data set” (2004).
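Dose response: 5 concentrations. Exposure: 48 h. Format: 96-well plates. Endpoint: linear interpolation; highest concentration if not reached. GI50 = concentration required for 50% inhibition of growth.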 The source made the active and inactive calls. Rule as the data show it: active = GI50 up to about 1.1 µM and inactive = higher.

Columns and labels:
Test in all cases: NCI tumour cell line growth inhibition, 48 h
MDA-MB-231 = system: MDA-MB-231
HCT-116 = system: HCT-116
OVCAR-3 = system: OVCAR-3
HCT-15 = system: HCT-15
SK-MEL-28 = system: SK-MEL-28
SN12C = system: SN12C
SR = system: SR
CCRF-CEM = system: CCRF-CEM
TK-10 = system: TK-10
NCI-H522 = system: NCI-H522
HOP-92 = system: HOP-92
PC-3 = system: PC-3
OVCAR-5 = system: OVCAR-5
U-251 = system: U-251
KM12 = system: KM12
HL-60 = system: HL-60
SNB-19 = system: SNB-19
SF-539 = system: SF-539
MOLT-4 = system: MOLT-4
RXF 393 = system: RXF 393

Compound | GI50 (MDA-MB-231) | GI50 (HCT-116) | GI50 (OVCAR-3) | GI50 (HCT-15) [µM] | GI50 (SK-MEL-28) | GI50 (SN12C) | GI50 (SR) | GI50 (CCRF-CEM) | GI50 (TK-10) | GI50 (NCI-H522) | GI50 (HOP-92) | GI50 (PC-3) | GI50 (OVCAR-5) | GI50 (U-251) | GI50 (KM12) | GI50 (HL-60) | GI50 (SNB-19) | GI50 (SF-539) | GI50 (MOLT-4) | GI50 (RXF 393)
CC(=O)OCC1=CC2OC(=O)C3=COC(OC4OC(CO)C(O)C(O)C4O)C1C32 (stereo not given) | > 100 µM (inactive) | > 100 µM (inactive) | > 100 µM (inactive) | > 100 | > 100 µM (inactive) | > 100 µM (inactive) | 57 µM (inactive) | > 100 µM (inactive) | > 100 µM (inactive) | > 100 µM (inactive) | > 100 µM (inactive) | > 100 µM (inactive) | > 100 µM (inactive) | > 100 µM (inactive) | > 100 µM (inactive) | > 100 µM (inactive) | > 100 µM (inactive) | > 100 µM (inactive) | – | –
S=C(Nc1c2c(nc3ccccc13)CCCC2)Nc1c2c(nc3ccccc13)CCCC2 | > 100 µM (inactive) | > 100 µM (inactive) | > 100 µM (inactive) | > 100 | > 100 µM (inactive) | > 100 µM (inactive) | > 100 µM (inactive) | > 100 µM (inactive) | > 100 µM (inactive) | > 100 µM (inactive) | – | > 100 µM (inactive) | > 100 µM (inactive) | > 100 µM (inactive) | > 100 µM (inactive) | – | > 100 µM (inactive) | – | > 100 µM (inactive) | > 100 µM (inactive)
CNc1nc(N)nc(Nc2ccc(I)cc2)c1N=O | > 100 µM (inactive) | > 100 µM (inactive) | 61 µM (inactive) | > 100 | > 100 µM (inactive) | > 100 µM (inactive) | > 100 µM (inactive) | > 100 µM (inactive) | > 100 µM (inactive) | 40 µM (inactive) | – | > 100 µM (inactive) | > 100 µM (inactive) | – | > 100 µM (inactive) | 62.4 µM (inactive) | > 100 µM (inactive) | > 100 µM (inactive) | 78.5 µM (inactive) | 57.4 µM (inactive)
Cc1nc(C(N)=S)sc1/C(CC(=O)C(=O)Nc1cccc2ccc(O)cc12)=N\NC(=O)c1ccncc1 | > 100 µM (inactive) | 55.8 µM (inactive) | 34 µM (inactive) | 41.9 | 74.8 µM (inactive) | 35.1 µM (inactive) | – | 33.4 µM (inactive) | 77.8 µM (inactive) | 34.5 µM (inactive) | 31.6 µM (inactive) | 75.9 µM (inactive) | > 100 µM (inactive) | 68.5 µM (inactive) | > 100 µM (inactive) | 25.6 µM (inactive) | 73.5 µM (inactive) | 94.2 µM (inactive) | 28.2 µM (inactive) | > 100 µM (inactive)
O=C(Cn1cc(-c2ccccc2)nn1)NC1CCCCC1 | > 100 µM (inactive) | > 100 µM (inactive) | – | > 100 | > 100 µM (inactive) | > 100 µM (inactive) | > 100 µM (inactive) | > 100 µM (inactive) | > 100 µM (inactive) | > 100 µM (inactive) | > 100 µM (inactive) | > 100 µM (inactive) | > 100 µM (inactive) | > 100 µM (inactive) | > 100 µM (inactive) | > 100 µM (inactive) | > 100 µM (inactive) | > 100 µM (inactive) | > 100 µM (inactive) | –
C=C(Br)CN(C(C)=O)C1CCCCC1 | > 100 µM (inactive) | > 100 µM (inactive) | > 100 µM (inactive) | > 100 | > 100 µM (inactive) | > 100 µM (inactive) | > 100 µM (inactive) | > 100 µM (inactive) | > 100 µM (inactive) | > 100 µM (inactive) | – | > 100 µM (inactive) | > 100 µM (inactive) | > 100 µM (inactive) | > 100 µM (inactive) | > 100 µM (inactive) | > 100 µM (inactive) | > 100 µM (inactive) | > 100 µM (inactive) | > 100 µM (inactive)
CC(=O)O[C@H]1C(=O)[C@@]2(C)[C@H]([C@H](OC(=O)c3ccncc3)[C@]3(O)C[C@H](OC(=O)[C@H](O)[C@@H](NC(=O)c4ccccc4)c4ccccc4)C(C)=C1C3(C)C)[C@]1(OC(C)=O)CO[C@@H]1C[C@@H]2O | > 20 µM (inactive) | 1.1 µM (active) | 1.25 µM (inactive) | > 25 | > 11.6 µM (inactive) | > 16.4 µM (inactive) | 1.09 µM (active) | 0.875 µM (active) | > 25 µM (inactive) | 1.77 µM (inactive) | – | 6.56 µM (inactive) | 10 µM (inactive) | 2.34 µM (inactive) | 2.61 µM (inactive) | 0.471 µM (active) | 4.51 µM (inactive) | 0.875 µM (active) | 1.39 µM (inactive) | 7.01 µM (inactive)
CCOc1ccc(/C=N/[N+](C)(C)C)cc1OCC | > 10 µM (inactive) | > 10 µM (inactive) | > 10 µM (inactive) | > 10 | > 10 µM (inactive) | > 10 µM (inactive) | > 10 µM (inactive) | > 10 µM (inactive) | > 10 µM (inactive) | > 10 µM (inactive) | > 10 µM (inactive) | > 10 µM (inactive) | > 10 µM (inactive) | > 10 µM (inactive) | > 10 µM (inactive) | – | > 10 µM (inactive) | > 10 µM (inactive) | > 10 µM (inactive) | –
C=C=C(CC(CC(=C)Br)(C(=O)OC)C(=O)OC)S(=O)(=O)c1ccccc1 | 1.98 µM (inactive) | 0.92 µM (active) | 2.27 µM (inactive) | 1.51 | 1.76 µM (inactive) | 1.53 µM (inactive) | – | 0.497 µM (active) | 1.96 µM (inactive) | 0.556 µM (active) | 1.95 µM (inactive) | 1.73 µM (inactive) | 1.65 µM (inactive) | 1.5 µM (inactive) | 2.29 µM (inactive) | 0.494 µM (active) | 12.2 µM (inactive) | 1.8 µM (inactive) | 1.91 µM (inactive) | 1.83 µM (inactive)
CC1(C)OC(=O)C(=Cc2ccc([N+](=O)[O-])s2)C(=O)O1 | 18.9 µM (inactive) | 2.4 µM (inactive) | 10.6 µM (inactive) | 3.18 | 18.9 µM (inactive) | 16.1 µM (inactive) | 2.72 µM (inactive) | 13.2 µM (inactive) | 17.3 µM (inactive) | – | 21.1 µM (inactive) | 19.2 µM (inactive) | 16.6 µM (inactive) | 15.4 µM (inactive) | 14.7 µM (inactive) | 2.49 µM (inactive) | 16.5 µM (inactive) | 15.4 µM (inactive) | 8.22 µM (inactive) | –
COC(=O)[C@@]12CCCC(=O)[C@@H]1[C@H]1CCCC[C@H]12 | > 100 µM (inactive) | > 100 µM (inactive) | > 100 µM (inactive) | > 100 | > 100 µM (inactive) | > 100 µM (inactive) | > 100 µM (inactive) | 59.2 µM (inactive) | > 100 µM (inactive) | > 100 µM (inactive) | 32.1 µM (inactive) | > 100 µM (inactive) | > 100 µM (inactive) | > 100 µM (inactive) | > 100 µM (inactive) | – | > 100 µM (inactive) | > 100 µM (inactive) | 30.6 µM (inactive) | > 100 µM (inactive)
C[n+]1c(-c2ccccc2)cc2/c(=C\c3ccc([N+](=O)[O-])cc3)c3ccccc3n21 | 3.24 µM (inactive) | 1.02 µM (active) | 3.06 µM (inactive) | 14.3 | 7.41 µM (inactive) | 2.17 µM (inactive) | – | 0.692 µM (active) | 9.06 µM (inactive) | 0.385 µM (active) | 1.66 µM (inactive) | 3.1 µM (inactive) | 6.85 µM (inactive) | 1.43 µM (inactive) | 3.29 µM (inactive) | 0.764 µM (active) | 3.06 µM (inactive) | 0.615 µM (active) | 0.966 µM (active) | 4.45 µM (inactive)
COc1ccccc1/N=N/C(=N\NC(=O)c1ccc(C)cc1)c1ccc(N(CCC#N)CCC#N)cc1C | 47.9 µM (inactive) | 31.6 µM (inactive) | 18.7 µM (inactive) | 41.4 | > 100 µM (inactive) | 39.4 µM (inactive) | 29.3 µM (inactive) | 0.693 µM (active) | > 100 µM (inactive) | – | > 100 µM (inactive) | 35 µM (inactive) | > 100 µM (inactive) | 43.9 µM (inactive) | 41.6 µM (inactive) | – | 97.3 µM (inactive) | > 100 µM (inactive) | 35.2 µM (inactive) | 25.5 µM (inactive)
COC1CC(n2ccc(=O)[nH]c2=O)OC1CO (stereo not given) | > 100 µM (inactive) | > 100 µM (inactive) | > 100 µM (inactive) | > 100 | > 100 µM (inactive) | > 100 µM (inactive) | > 100 µM (inactive) | > 100 µM (inactive) | – | > 100 µM (inactive) | > 100 µM (inactive) | > 100 µM (inactive) | > 100 µM (inactive) | > 100 µM (inactive) | > 100 µM (inactive) | – | > 100 µM (inactive) | > 100 µM (inactive) | > 100 µM (inactive) | > 100 µM (inactive)
C1=CCC[C@@H]2CN3CCCC/C=C\CCCC[C@H]4C[C@H](CN(CCCCCCCC1)C4)[C@H]2CC3 | 9.04 µM (inactive) | 9.12 µM (inactive) | 8.07 µM (inactive) | 10.4 | 7.93 µM (inactive) | 12.5 µM (inactive) | 9.25 µM (inactive) | 12.4 µM (inactive) | 8.83 µM (inactive) | 9.42 µM (inactive) | – | 12.8 µM (inactive) | 10.6 µM (inactive) | 8.51 µM (inactive) | 7.91 µM (inactive) | 12 µM (inactive) | 10.9 µM (inactive) | 7.98 µM (inactive) | 9.79 µM (inactive) | –
